Measurements as given in PubChem BioAssay AID2305 (GlaxoSmithKline (GSK), 2010).

tested on: P. falciparum 3D7 growth, pLDH absorbance; experiment: blood-stage malaria parasite growth potency – strain 3D7, dose response (AID 2305)

Row | Compound | IC50 [nM]
1 | CC(C)(C)n1nnnc1C(c1cccnc1)N(Cc1ccccc1)Cc1ccc(Cl)cc1 (stereo not drawn) | 740
2 | Cc1ccc(C(=O)Nc2ccc(OC3CCN(CCC(C)C)C3)c(Cl)c2)cc1 (stereo not drawn) | 990
3 | Cc1cc(N)c2cc(NC(=O)c3ccc4ccccc4c3)ccc2n1 | 250
4 | CCCCCC(C)C(C)c1cc(O)c2c(c1)OC(C)(C)CC2=Cc1ccncc1 (stereo not drawn) | 210
5 | CC(CCNc1c2ccccc2nc2ccccc12)N1CCN(C)CC1 (stereo not drawn) | 800
6 | Cc1cc(N)c2cc(NC(=O)c3cc4ccccc4s3)ccc2n1 | 110
7 | O=C(COc1ccc(Cl)c(Cl)c1)NCCCCCN1CCCN(C(=O)Nc2ccc(Cl)c(Cl)c2)CC1 | 1730
8 | COc1ccc(-c2cc(C(=O)Nc3ccc(CCCN(C)Cc4ccc(OC)c(OC)c4)cc3)c3ccccc3n2)cc1 | 700
9 | COc1ccc(-c2ccc(NC(=O)c3ccc(C#N)cc3)cc2)cc1CN(C)CCN(C)C | 660
10 | NC(N)=NN=CC(=O)Nc1ccc(Cl)cc1 | 810
11 | O=c1[nH]ccc2nc(N[C@@H]3CCNC3)nc(Nc3cccc(S(=O)(=O)N4CCOCC4)c3)c12 | 1230
12 | CCc1ccccc1N1CCN(CCCC(=O)c2ccc(NC(=O)c3cc(Cl)cc(Cl)c3)cc2)CC1 | 290
13 | CN1CCN(CCCN(C(=O)Nc2cc(C(F)(F)F)cc(C(F)(F)F)c2)c2ccccc2Cc2ccccc2)CC1 | 1130
14 | O=C(/C=C/c1ccc(Cl)c(Cl)c1)N1CC[C@H]2C[C@H](N3CCC(c4c[nH]c5ccccc45)CC3)CC[C@@H]2C1 | 170
15 | COc1cc2c(cc1C=CC(=O)N1CCN(Cc3nc4sc(C)c(C)c4c(=O)[nH]3)CC1)OC(C)C2 (stereo not drawn) | 1020
16 | COc1ccc(Cl)cc1N1CCN(CCCNC(=O)c2ccc(-c3nc4ccncc4[nH]3)c(Br)c2)CC1 | 1150
17 | CCN(CC)CC(O)CNc1c2ccc([N+](=O)[O-])cc2nc2cc(OC)c(OC)cc12 (stereo not drawn) | 270
18 | FC(F)(F)COc1ccc2ccccc2c1CCNCCCCNCCc1c(OCC(F)(F)F)ccc2ccccc12 | 430
19 | CC[C@H]1CN2CC[C@@H]1C[C@H]2[C@H](O)c1cc(N2CCC(O)(c3ccc(Cl)cc3)CC2)nc2ccc(OC)cc12 | 70
20 | COc1ccc(C(=O)NC2CCN(c3ccnc4cc(Cl)ccc34)C2)cc1 (stereo not drawn) | 230
21 | Cc1ccc(NC(=O)Nc2ccc(Cl)c(C(F)(F)F)c2)cc1-c1ccc(C(=O)NCCN2CCOCC2)cc1 | 810
22 | Cc1ncc(CN2CCC(C(=O)Nc3ccc(-c4nc5ccccc5o4)cc3)CC2)s1 | 390
23 | CN(CCCCN)Cc1ccc(-c2ccc(Cl)cc2)cc1 | 880
24 | Cc1ccc(-c2nc3ccc(C(=O)NC4CCN(Cc5ccccc5)CC4)cc3[nH]2)cc1 | 740
25 | CCNc1cc(C(=O)N[C@@H](Cc2ccccc2)[C@H](O)CNCc2cc(C#N)ccc2OC)cc(N2CCCC2=O)c1 | 1230

Row | Compound | IC50 [nM]
26 | c1cc(-c2cc3ccc(C4=NCCN4)cc3[nH]2)ccc1C1=NCCN1 | 220
27 | CC(C)NC[C@@H](O)[C@H](Cc1ccccc1)NC(=O)c1cc2c3c(c1)c(C(C)C)cn3CCS(=O)(=O)N2C | 180
28 | CN(Cc1cnc2nc(N)nc(N)c2n1)c1ccc(C(=O)N[C@H](CCC(=O)O)C(=O)O)cc1 | 100
29 | CCCCOC(=O)C1=C(C)NC2=C(C(=O)CCC2)C1c1ccc(OC)c(Br)c1 (stereo not drawn) | 600
30 | Cc1cc(OCCCN2CCCCC2C)ccc1NC(=O)COc1ccc(Cl)cc1C(=O)c1cc(Cl)cc(C#N)c1 (stereo not drawn) | 980
31 | Cc1ccc2nc(C)cc(NN=CC=Cc3ccccc3)c2c1 | 840
32 | Cc1[nH]c(C)c(C2CCC(c3ccc(Cl)cc3)CC2)c(=O)c1Cl (stereo not drawn) | 50
33 | Cc1cccc2[nH]c(-c3cccc(-c4ccc(CNCc5ccc(S(C)(=O)=O)cc5)cc4)c3)nc12 | 180
34 | CN1CCCc2ccc(NC(=O)c3cc(-c4ccc(Cl)cc4)cs3)cc2C1 | 790
35 | CCCCCOc1ccc(C(O)C(CCC(CN2CCCCCC2)C(O)c2ccc(OCCCCC)cc2)CN2CCCCCC2)cc1 (stereo not drawn) | 770
36 | c1ccc(Oc2ccc(Nc3ccnc(Nc4cccc(CNCCCN5CCOCC5)c4)n3)cc2)cc1 | 1040
37 | COc1ccc(OC)c2c1CCN(CCN1CCC(C(=O)Nc3ccc(C(=O)Nc4ccc(Cl)cc4)cc3)CC1)C2 | 580
38 | CCCc1c(C(=O)OCC)c2cc(O)ccc2n1-c1ccc(OC)cc1 | 140
39 | CN1CCN(c2ccnc3ccc(NC(=O)Nc4ccc5c(c4)CCCC5=O)cc23)CC1 | 130
40 | Cc1cc(N(C)C)nc(Nc2ccc(NC(=O)c3ccc(F)cc3)cc2)n1 | 710
41 | CCCCc1ccc2nc(NC(=O)OC)[nH]c2c1 | 680
42 | O=C(c1ccc(OCCn2ccnc2)cc1)N1CCC(c2ccc(Br)cc2)C1 (stereo not drawn) | 120
43 | COc1ccc(-c2nc(NC(=O)CS(=O)(=O)c3ccc(C)cc3)sc2C)cc1 | 400
44 | Cc1c(N=O)cc(C(C)(C)C)c(O)c1C(=O)Nc1ccc([N+](=O)[O-])cc1Cl | 770
45 | Cc1ccc(CN2CCCN(Cc3cccc(NC(=O)c4cc5ccccc5s4)c3)CC2)cc1C | 730
46 | CN(Cc1cc(C(F)(F)F)cc(C(F)(F)F)c1)C(=O)[C@H]1CNC[C@@H]1c1ccc(F)cc1 | 830
47 | CN(C)CCCOc1ccc(CNCc2cccc(Oc3ccc(Cl)cc3)c2)cc1 | 820
48 | COc1ccc2nccc(NC(=O)C3CCC(NCc4ccc5c(c4)NC(=O)CS5)CC3)c2c1 (stereo not drawn) | 590
49 | COc1ccc2nccc([C@@H](O)CN3CCC(NCc4cc5ccccc5[nH]4)CC3)c2n1 | 630
50 | COc1cccc(NC(=O)Nc2c(-c3cccc(C(F)(F)F)c3)c(C(F)(F)F)nn2C)c1 | 910

Row | Compound | IC50 [nM]
51 | COc1ccc2nccc([C@@H](O)CN3CCC(NCc4cc5cccc(O)c5c(=O)[nH]4)CC3)c2c1 | 390
52 | CC[C@H]1CN2CC[C@H]1C[C@H]2[C@H](O)c1cc(/C=C/c2ccc(F)cc2)nc2ccc(OC)cc12 | 30
53 | CN1CCN(CC(=O)Nc2ccc(-c3csc(-c4nc5ccccc5[nH]4)c3)cc2)CC1 | 1560
54 | O=C(N1CCN(c2ccc(C(F)(F)F)cc2[N+](=O)[O-])CC1)C(Cl)(Cl)Cl | 710
55 | COc1cccc(OC2CCN(C(=O)c3ccc(-c4ccc(N5CCCC5=O)cc4C)cc3)CC2)c1 | 1010
56 | CCO[C@H]1CN[C@H](C#Cc2cc3c(Nc4ccc(OCc5cccc(F)c5)c(Cl)c4)ncnc3s2)C1 | 940
57 | Nc1nc(N)c2c(Sc3ccc(F)cc3)cccc2n1 | 1070
58 | CCc1nc(N)nc(N)c1-c1cccc(Cl)c1 | 190
59 | Cc1cc(N(C)C2CCN(C)C2)nc(Nc2ccc(Cl)cc2)n1 (stereo not drawn) | 340
60 | COc1cc2ncnc(Nc3ccc(OCc4ccccc4)c(C(F)(F)F)c3)c2cc1OC | 250
61 | Cc1ccccc1C1CCN(C2CCC(NC(=O)/C=C/c3ccc4c(c3)OC(F)(F)O4)CC2)CC1 (stereo not drawn) | 670
62 | CCCc1cc(Cc2cnc(N)nc2N)cc(OC)c1OC | 990
63 | Cc1ccc(S(=O)(=O)NC2CCN(c3ccnc4cc(Cl)ccc34)C2)cc1 (stereo not drawn) | 620
64 | O=C(/C=C/c1ccc(Cl)c(Cl)c1)N1CCC(CN2CCC(c3c[nH]c4ncccc34)CC2)CC1 | 1090
65 | O=C(C=Cc1ccc(Cl)c(Cl)c1)NCCCCCN1CCC(CCNC(=O)C(c2ccccc2)c2ccccc2)CC1 | 1010
66 | CCCC/C=C(\Cl)c1ccc(O)c2c1C[C@H]1C[C@H]3[C@H](N(C)C)C(=O)C(C(N)=O)=C(O)[C@@]3(O)C(=O)C1=C2O | 1090
67 | COc1cc2nc(NCC3CCCO3)n3nc(-c4ccccc4)nc3c2cc1OC (stereo not drawn) | 210
68 | Nc1ncc(-c2cc3ccccc3o2)c(N)n1 | 1410
69 | CC1(C)CNCc2cc(NC(=O)/C=C/c3ccc(Cl)cc3)ccc21 | 1180
70 | S=C(NCCN1CCOCC1)Nc1ccccc1 | 1020
71 | O=C(Nc1ccc(Cl)c(Cl)c1)N1CCC(CNCc2cccc([N+](=O)[O-])c2)CC1 | 980
72 | CN1CCN(c2ccnc3ccc(NC(=O)Nc4ccc(Br)cc4)cc23)CC1 | 90
73 | CS(=O)(=O)CCNCc1nc(-c2ccc3ncnc(Nc4ccc(OCc5ccccc5)c(Cl)c4)c3c2)cs1 | 800
74 | COc1ccc2nccc([C@@H](O)CN3CC[C@H](NCc4nc5c(cc4F)SCC(=O)N5)[C@H](F)C3)c2c1 | 730
75 | Cc1cnc(C(=O)Nc2cccc(-c3ccc(-c4nc5ccc(F)cc5[nH]4)cc3)c2)cn1 | 640

Row | Compound | IC50 [nM]
76 | COc1ccc(Cc2nc3c(n2C(C)=O)SC(c2ccc(Cl)c(Cl)c2)=NN3C(C)=O)cc1 | 810
77 | CCOC(=O)c1cncc(/C=C/c2cc(C)cnc2N)c1 | 420
78 | Cc1[nH]c2cc(Cl)ccc2c1C1=CCN(CCCCC2(C)C(=O)Nc3ccccc32)CC1 (stereo not drawn) | 330
79 | Cc1ccc(NC(=O)c2ccc(CN3CCCN(Cc4cccc(O)c4)CC3)cc2)cc1C | 860
80 | O=C(Nc1cccc(CN2CCN(Cc3ccc(O)cc3)CC2)c1)c1cc2ccccc2o1 | 1180
81 | COC(=O)c1cccc(CNCc2cccc(-c3cccc(-c4nc5ccc(F)cc5[nH]4)c3)c2)c1 | 130
82 | O=C(/C=C/c1ccc(Cl)c(Cl)c1)NCCCCCN1CCCC(CNC(=O)c2sc3ccccc3c2Cl)C1 (stereo not drawn) | 870
83 | Clc1ccc(-c2cnc3ccc(NCc4ccncc4)nn23)cc1 | 890
84 | COc1ccc2nc(C)cc(Nc3ccc(Oc4ccc(Cl)cc4)c(Cl)c3)c2c1 | 190
85 | CCc1cc(CNC2CCN(CCc3c(F)cnc4ccc(OC)nc34)CC2)cc2c1OCCO2 | 260
86 | CN(Cc1cc(C(F)(F)F)cc(C(F)(F)F)c1)C(=O)C(Cc1ccc(F)cc1)C1CCCNC1 (stereo not drawn) | 1540
87 | Cn1c(=O)c2nc(-c3ccc(Cl)cc3)nnc2n(CCCC#N)c1=O | 150
88 | CC(C)(C)OC(=O)N1CCC(C2CCN(C(=O)OC(C)(C)C)CC2)CC1 | 1160
89 | O=C(Nc1cccc(-c2cccc(-c3ccc(F)cc3)n2)c1)c1ccc([N+](=O)[O-])o1 | 360
90 | O=C(Nc1ccccc1)c1ccc(N2CCC(COc3cccc(C(F)(F)F)c3)CC2)nc1 | 300
91 | CC1(C)N=C(N)N=C(N)N1c1ccc(I)cc1 | 40
92 | O=C(Cc1cccs1)NCC(c1ccccc1Cl)c1c[nH]c2ccccc12 (stereo not drawn) | 1150
93 | Cc1ccc(C)c(C2CCN(CCCCNC(=O)c3ccc(NC(=O)c4ccc(Cl)cc4)cc3)CC2)c1 | 850
94 | CCCCCc1ccc(NC(=O)Nc2ccc(Cn3ncc(N4CCCNCC4)c(Cl)c3=O)cc2)cc1 | 1140
95 | CCN(CC)CCNc1nccc(N(C)c2ccc(NC(=O)Nc3cc(C(F)(F)F)ccc3F)cc2)n1 | 550
96 | Oc1c(Br)cc2oc3c(c2c1CNCc1ccccc1)CCCC3 | 960
97 | Cc1cc(NC(=O)Nc2ccc3sccc3c2)c2ccccc2n1 | 530
98 | O=C(Nc1ccccc1O)c1ccc(Oc2cccc(C(=O)Nc3ccccc3O)c2)cc1 | 800
